# Measured values as given in patent publication US12377095B2, “Use of ligustrazine nitrone derivatives in treatment and prevention of diabetic complication diseases” (QINGDAO HAILAN PHARMACEUTICALS CO., LTD., priority 2019, dated 2025).
# Assays:
# STZ-induced DKD rats [1] = test: HE staining of kidney tissue, STZ-induced SD rat DKD model; assay type: in vivo
# Method: (§1) Before the injection, the rats were fasted for 12 hours without water. After weighing, the rats were injected with 55 mg/kg STZ intraperitoneally (STZ needs to be injected quickly, and the injection was completed within 10 minutes), and then returned to the cage to ensure that the rats had sufficient drinking water for 24 hours. Rats were injected with an equal volume of citrate buffer (pH 4.5). After STZ injection for 3 weeks, blood was collected from the tail vein, and blood glucose ≥16.7 mmol/L was used as the criteria for the standard of the rats.
# (§2) The route of administration is intragastric administration. TBN was administered twice a day (fixed at 9:00-10:00 am and 3:00-4:00 pm), and Losartan was administered once a day (fixed at 9:00-10:00 am) continuously for 6 weeks.
# At the end of the experiment, kidney tissues were quickly separated, fixed with 4% paraformaldehyde and embedded in paraffin, serially sliced, 5 μm each, dried at 37° C. for 1 h, and then stained with hematoxylin and eosin (HE). The process is briefly as follows: paraffin sections were taken out of the 65° C. oven and immediately put in xylene to dewax and rehydrated with gradient alcohol, stained with hematoxylin staining solution for 10 minutes, and microscopically controlled alcohol differentiation with 1% hydrochloric acid was performed until the chromatin of the nucleus and the nucleus becomes clear; 1% ammonia water-ethanol solution is blue; 0.5% eosin Y-ethanol solution is stained for 3 min, and finally dehydrated routinely, mounted, and the tissue morphology changes are observed under a light microscope. […] The glomerular volume of rats in the DKD group of the Vehicle group increased, the mesangial area was diffusely widened, the mesangial cells were proliferated, the capillary loops were expanded, the mesangial matrix increased, and the glomerular capillary basement membrane was irregularly thickened. Renal pathological changes such as vacuole deformation, shedding of renal tubular epithelial cells and infiltration of a large number of inflammatory cells (FIG. 9A).
# STZ-induced DKD rats [2] = test: Serum erythropoietin (ELISA) in STZ-induced DKD rats; assay type: in vivo, rat
# Method: as §1, §2
# At the end of the experiment, after rats were anesthetized, blood was taken from the abdominal aorta, allowed to stand for 1 hour, the supernatant was collected by centrifugation at 3000 rmp for 10 min. The serum erythropoietin level was measured according to the kit operating instructions. […] In the measurement, the blank hole was adjusted to zero, and the absorbance (OD value) of each hole was measured in sequence with a wavelength of 450 nm. […]
# [3] = tested on: diabetic neuropathy model rats; test: Thermal radiation stimulation in diabetic neuropathy model rats; assay type: in vivo, rat; conditions: TBN 30 mg/kg twice a day, 4 weeks of administration (8 weeks after STZ), P<0.05
# Method: Modeling method: STZ was weighed and transferred to a centrifuge tube, wrapped with aluminum foil, kept away from light, and stored at −20° C. STZ sodium citrate solution is prepared when it is in need to use. The rats were fasted without water for 12 hours before injection. After weighing, the rats were injected with 55 mg/kg STZ intraperitoneally (STZ needs to be injected quickly, and the injection was completed within 10 minutes), and then returned to the cage to ensure that the rats had sufficient drinking water for 24 hours. Rats were injected with an equal volume of citrate buffer (pH 4.5). Four weeks after STZ injection, blood was collected from the tail vein, and the rats with blood glucose less than 16.7 mmol/L were eliminated; the taillick threshold temperature was increased, and the mechanical withdrawal threshold (MWT) was decreased, as the standard of a successful DPN model.
# The animals were randomly divided into 3 groups (n=7), namely the normal control group, the model group, and the TBN (30 mg/kg) group. The normal group and the model group were injected with an equal volume of normal saline, and TBN was administered twice a day (fixed at 9:00-10:00 am and 3:00-4:00 pm), continuously for 4 weeks. […]
# STZ-induced DKD rats [4] = test: Kidney index of STZ-induced DKD rats; assay type: in vivo, rat; conditions: after 6 weeks of administration
# Method: SD rats (200±10 g) were used as model animals, which were fasted for 12 h before injection. STZ was dissolved in citrate buffer at 1% concentration, and rats were fasted and intraperitoneally injected with 55 mg/kg STZ and placed in the cage, the rats being ensured with adequate water intake for 24 h. STZ injections need to be fast and complete within 10 minutes of injection. The normal control group was injected with an equal volume of pH 4.5 citric acid-sodium citrate buffer. The state of the animals (multiple drinking and polyuria) was observed. After 3 weeks of STZ injection, blood was collected from the tail vein, and fasting blood glucose ≥16.7 mmol/L was measured as the standard for diabetic nephropathy in rats.
# DKD rats were randomly assigned to 6 groups and given with different drugs. After 6 weeks of administration, the experiment was terminated and the protective effect of the drug on DKD rats was observed.
# After 6 weeks of administration, the kidney tissue was uniformly separated by an autoclave surgical instrument, and washed with normal saline. After the filter paper was blotted, the fine balance was weighed, and then stored in a refrigerator at −80° C. for use. Kidney index (relative to kidney weight) is kidney weight (mg)/body weight (g)[…].
# STZ-induced SHR rats = test: Serum EPO content in STZ-induced SHR rats; assay type: in vivo, rat; conditions: TBN group (T60), 60 mg/kg
smiles,measurement,setting,value
Cc1nc(C)c(/C=[N+](\[O-])C(C)(C)C)nc1C [TBN],renal pathological changes (HE),"STZ-induced DKD rats [1]; 60 mg/kg i.g. twice/day, 6 weeks",improved the most
same,renal pathological changes (HE),"STZ-induced DKD rats [1]; each dose group of TBN (10, 30, 60 mg/kg i.g. twice/day, 6 weeks)",improved
same,serum EPO content,"STZ-induced DKD rats [2]; 30 mg/kg and 60 mg/kg, P<0.05",increased EPO content with significant statistical difference
same,serum EPO content,"STZ-induced DKD rats [2]; TBN dose groups (10, 30, 60 mg/kg) vs vehicle, to varying degrees",increased
same,pain threshold of heat stimulation (hindlimb lifting latency) vs model group,[3],increase
same,kidney index,STZ-induced DKD rats [4],significantly reduced
same,content of EPO in serum vs model group,STZ-induced SHR rats,significantly increased
